Literature values, collected in paper PMC3989431 (Peptides, 2013).

System: H. zea pupae
Conditions: earlier in vivo bioassay

AWFGPRLa
in vivo activity: without in vivo activity
